Test results: patent US20210395327A1, “Growth Hormone-Releasing Hormone Antagonists and Uses Thereof” (United States Government As Represented By The Department …, priority 2019, published 2021)
Read-outs that look alike come from different tables or passages of the source. Non-standard residues stand in square brackets, D forms with d. Residues, ends and D or L forms follow the SMILES beside them. *: point of attachment. Phenylacetyl(2,3,4,5,6-F5) = O=C(Cc1c(F)c(F)c(F)c(F)c1F)*; Phe(4-Cl) = N[C@@H](Cc1ccc(Cl)cc1)C(=O)O; hArg = N=C(N)NCCCC[C@H](N)C(=O)O; 12Ado = NCCCCCCCCCCCC(=O)O; Nle = CCCC[C@H](N)C(=O)O; Orn = NCCC[C@H](N)C(=O)O; Abu = CC[C@H](N)C(=O)O; PhAc = O=C(Cc1ccccc1)*; Aoc = NCCCCCCCC(=O)O

Legend:
[1] = target: T1, membrane GHRH-receptors on human anterior pituitary cells (Homo sapiens, UniProt Q02643); test: Receptor binding, displacement of 125I-[His1,Nle27]-hGH-RH(1-32)NH2 on human pituitary membranes
T1 construct: Human pituitary was purchased from the National Hormone and Peptide Program; tissue National Hormone and Peptide Program; host or cells: human pituitary (membrane fractions)
T1 sequence (Q02643 23-423): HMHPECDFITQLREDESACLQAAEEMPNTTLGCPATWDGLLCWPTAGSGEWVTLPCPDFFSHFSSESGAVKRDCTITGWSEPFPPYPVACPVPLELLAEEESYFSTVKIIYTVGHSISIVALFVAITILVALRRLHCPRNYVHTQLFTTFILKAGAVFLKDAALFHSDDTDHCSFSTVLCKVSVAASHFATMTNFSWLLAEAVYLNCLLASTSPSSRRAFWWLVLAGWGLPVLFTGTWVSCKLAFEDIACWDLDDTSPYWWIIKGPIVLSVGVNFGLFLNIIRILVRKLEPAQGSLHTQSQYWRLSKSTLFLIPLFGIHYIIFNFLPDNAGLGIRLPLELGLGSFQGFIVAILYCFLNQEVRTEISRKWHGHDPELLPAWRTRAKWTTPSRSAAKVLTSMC
Experimental: Receptor binding affinities in vitro. Preparation of human pituitary membrane fractions and receptor binding of analogs of GH-RH were performed (Halmos G, Rekasi Z, Szoke B, Schally A V. (1993) Receptor 3:87-97). Human pituitary was purchased from the National Hormone and Peptide Program. […] Relative affinities compared to hGH-RH(1-29)NH2 were calculated as the ratio of IC50 (dose causing 50% inhibition of specific binding to receptors) of the tested peptides to the IC50 of hGH-RH(1-29)NH2. The values were calculated from technical duplicate tubes.
Nineteen new AVR analogs of GHRH were tested in the receptor binding assay. Table 6 presents the IC50 values of GHRH antagonists to membrane GHRH-receptors binding on human anterior pituitary cells.

[2] = test system: KATOIII stomach cancer cells; test: In vitro cell viability, KATOIII; format: cell-based, human; conditions: antagonist 5 μM for 72 h, cell proliferation assay; MIA602 = 1
Experimental: (§1) The inhibitory effects of the various synthesized GHRH antagonists were tested in cell proliferation assays in various human cancer cell lines including stomach cancer (KATOIII, N87), colon cancer (HT-29), urothelial cancer (J82, RT4), pancreatic cancer (PANC-1, CFPAC-1), prostatic cancer (PC3), breast cancer (MX-1, HCC1806), ovarian cancer (SK-OV-3, OVCAR-3) and lung cancer (HCC827, H460).
(§2) Cell culture. Human cancer cell lines including pancreatic (PANC-1 and CFPAC-1), lung (HCC827 and H460), stomach (NCI-N87 and KATOIII), urothelial (J82, RT4), prostatic (PC3), breast (MX-1 and HCC 1806), colorectal (HT-29), and ovarian (SK-OV-3 and OVCAR-3) were obtained from the American Type Culture Collection (ATCC) and cultured at 37° C. in a humidified 95% air/5% CO2 atmosphere in the medium recommended by ATCC.
(§3) In vitro cell viability. Cell viability was analyzed as follows: cancer cells including pancreatic (PANC-1 and CFPAC-1), lung (HCC827 and H460), stomach (NCI-N87 and KATOIII), urothelial (J82, RT4), prostatic (PC3) and breast (MX-1 and HCC 1806), colorectal (HT-29) and ovarian (SK-OV-3 and OVCAR-3) were grown on 96 well plates to ˜60% confluence, the cells were starved for 24 h in culture medium containing 0.5% FBS. Cells were then treated with GHRH antagonists MIA602 AVR compounds at concentrations of 1, 2.5 or 5 μM, or vehicle (0.1% DMSO) in quintuplicates for 72 hours. The medium was replaced every 48 hours. Cell viability was measured using CellTiter 96 aqueous one solution kit (Promega). Inhibitory effects of tested AVR compounds in comparison to that of MIA602 are presented as inhibitory potency.
(§4) Inhibitory effects of selected AVR compounds in comparison to that of MIA602 are presented as inhibitory potency (e.g., percentage of inhibition). […] The cell lines tested including lung cancer HCC827 (FIG. 2A), pancreatic cancer CFPAC-1 (FIG. 2B), stomach cancer N87 (FIG. 2C), colon cancer HT-29 (FIG. 2D), breast cancers MX-1 and HCC1806 (FIGS. 2 E, F). Based on the results of cell proliferation assay after cancer cells were treated with antagonist at concentration of 5 μM for 72H, the relative inhibitory potency of AVR antagonists in comparison to MIA-602 is summarized in Table 3 A and B. Over 60 AVR compounds were tested in 12 cancer cell lines.

HCC827 lung cancer cells = test: In vitro cell viability, HCC827; format: cell-based, human; conditions: antagonist 5 μM for 72 h, cell proliferation assay; MIA602 = 1
Experimental: as §1, §2, §3, §4
(§5) Based on the results of cell proliferation assay after cancer cells were treated with antagonist at concentration of 5 µM for 72H, * at concentration of 2 µM for 72 H.

[3] = test system: CFPAC-1 pancreatic cancer cells; test: In vitro cell viability, CFPAC-1; format: cell-based, human; conditions: antagonist 5 μM for 72 h, cell proliferation assay; MIA602 = 1
Experimental: as §1, §2, §3, §4, §5

[4] = membrane receptors on human anterior pituitary cells, mean of two to three determinations, read-out: IC50

| SMILES | IC50 [1] [nM] | relative inhibitory potency in comparison to MIA-602, Stomach KATOIII [2] | relative inhibitory potency in comparison to MIA-602, Lung IICC827 (HCC827 lung cancer cells) | IC50 [1, 4] [nM] | relative inhibitory potency in comparison to MIA-602, Pancreatic CFPAC-1 [3] |
| --- | --- | --- | --- | --- | --- |
| CCCC[C@H](NC(=O)[C@@H](NC(=O)[C@H](CC(=O)O)NC(=O)[C@H](CCC(N)=O)NC(=O)[C@H](CC(C)C)NC(=O)[C@H](CC(C)C)NC(=O)[C@H](CCCCN)NC(=O)[C@H](CCCNC(=N)N)NC(=O)[C@H](C)NC(=O)[C@H](CO)NC(=O)[C@H](CC(C)C)NC(=O)[C@H](CCC(N)=O)NC(=O)[C@H](CC)NC(=O)[C@H](CC(C)C)NC(=O)[C@@H](NC(=O)[C@H](CCCCN)NC(=O)[C@H](CCCNC(=N)N)NC(=O)[C@H](Cc1ccc(OC)cc1)NC(=O)[C@H](CCCCNC(=N)N)NC(=O)[C@H](CC(N)=O)NC(=O)[C@@H](NC(=O)[C@H](Cc1ccc(Cl)cc1)NC(=O)[C@@H](NC(=O)[C@H](C)NC(=O)[C@H](CC(=O)O)NC(=O)[C@@H](CCCNC(=N)N)NC(=O)[C@H](Cc1ccc(O)cc1)NC(=O)CCCCCCCCCCCNC(=O)Cc1ccccc1)[C@@H](C)CC)[C@@H](C)O)C(C)C)[C@@H](C)CC)C(=O)N[C@H](CCCNC(=N)N)C(=O)N[C@@H](CCCCNC(=N)N)C(=O)NCCCCCCCC(=O)NC [AVR-321, PhAC-Ada-Tyr-DArg-Asp-Ala-Ile-Cpa-Thr-Asn-Har-Tyr(Me)-Arg-Lys-Val-Leu-Abu-Gln-Leu-Ser-Ala-Arg-Lys-Leu-Leu-Gln-Asp-Ile-Nle-DArg-Har-Aoc-NHCH3] ({PhAc-12Ado}-Y[dR]DAI[Phe(4-Cl)]TN[hArg]Y(Me)RKVL[Abu]QLSARKLLQDI[Nle][dR][hArg][Aoc]-NHMe) | 0.23 | 1.414 |  |  |  |
| CCCC[C@H](NC(=O)[C@@H](NC(=O)[C@H](CC(=O)O)NC(=O)[C@H](CCC(N)=O)NC(=O)[C@H](CC(C)C)NC(=O)[C@H](CC(C)C)NC(=O)[C@H](CCCN)NC(=O)[C@H](Cc1c[nH]cn1)NC(=O)[C@H](C)NC(=O)[C@H](CO)NC(=O)[C@H](CC(C)C)NC(=O)[C@H](CCC(N)=O)NC(=O)[C@H](CC)NC(=O)[C@H](CC(C)C)NC(=O)[C@@H](NC(=O)[C@H](CCCCN)NC(=O)[C@H](CCCNC(=N)N)NC(=O)[C@H](Cc1ccc(OC)cc1)NC(=O)[C@H](CCCNC(=N)N)NC(=O)[C@H](CC(N)=O)NC(=O)[C@@H](NC(=O)[C@H](Cc1ccc(Cl)cc1)NC(=O)[C@@H](NC(=O)[C@H](C)NC(=O)[C@H](CC(=O)O)NC(=O)[C@@H](CCCNC(=N)N)NC(=O)[C@H](Cc1ccc(O)cc1)NC(=O)CCCCCCCCCCCNC(=O)Cc1c(F)c(F)c(F)c(F)c1F)[C@@H](C)CC)[C@@H](C)O)C(C)C)[C@@H](C)CC)C(=O)N[C@H](CCCNC(=N)N)C(=O)N[C@@H](CCCCNC(=N)N)C(=O)NCCCCCCCCCCCC(N)=O [AVR-620, 5FPhAC-Ada-Tyr-DArg-Asp-Ala-Ile-Cpa-Thr-Asn-Arg-Tyr(Me)-Arg-Lys-Val-Leu-Abu-Gln-Leu-Ser-Ala-His-Orn-Leu-Leu-Gln-Asp-Ile-Nle-DArg-Har-Ada-NH2] ({Phenylacetyl(2,3,4,5,6-F5)-12Ado}-Y[dR]DAI[Phe(4-Cl)]TNRY(Me)RKVL[Abu]QLSAH[Orn]LLQDI[Nle][dR][hArg][12Ado]-NH2) |  | 1.769 | 3.753 | 0.31 | 1.567 |
| CCCC[C@H](NC(=O)[C@@H](NC(=O)[C@H](CC(=O)O)NC(=O)[C@H](CCC(N)=O)NC(=O)[C@H](CC(C)C)NC(=O)[C@H](CC(C)C)NC(=O)[C@H](CCCCN)NC(=O)[C@H](CCCNC(=N)N)NC(=O)[C@H](C)NC(=O)[C@H](CO)NC(=O)[C@H](CC(C)C)NC(=O)[C@H](CCC(N)=O)NC(=O)[C@H](CC)NC(=O)[C@H](CC(C)C)NC(=O)[C@@H](NC(=O)[C@H](CCCCN)NC(=O)[C@H](CCCNC(=N)N)NC(=O)[C@H](Cc1ccc(OC)cc1)NC(=O)[C@H](CCCCNC(=N)N)NC(=O)[C@H](CC(N)=O)NC(=O)[C@@H](NC(=O)[C@H](Cc1ccc(Cl)cc1)NC(=O)[C@@H](NC(=O)[C@H](C)NC(=O)[C@H](CC(=O)O)NC(=O)[C@@H](CCCNC(=N)N)NC(=O)[C@H](Cc1ccc(O)cc1)NC(=O)CCCCCCCCCCCNC(=O)Cc1c(F)c(F)c(F)c(F)c1F)[C@@H](C)CC)[C@@H](C)O)C(C)C)[C@@H](C)CC)C(=O)N[C@H](CCCNC(=N)N)C(=O)N[C@@H](CCCCNC(=N)N)C(=O)NCCCCCCCC(=O)NC [AVR-322, 5FPhAC-Ada-Tyr-DArg-Asp-Ala-Ile-Cpa-Thr-Asn-Har-Tyr(Me)-Arg-Lys-Val-Leu-Abu-Gln-Leu-Ser-Ala-Arg-Lys-Leu-Leu-Gln-Asp-Ile-Nle-DArg-Har-Aoc-NHCH3] ({Phenylacetyl(2,3,4,5,6-F5)-12Ado}-Y[dR]DAI[Phe(4-Cl)]TN[hArg]Y(Me)RKVL[Abu]QLSARKLLQDI[Nle][dR][hArg][Aoc]-NHMe) |  | 1.296 |  | 0.25 |  |
| CCCC[C@H](NC(=O)[C@@H](NC(=O)[C@H](CC(=O)O)NC(=O)[C@H](CCC(N)=O)NC(=O)[C@H](CC(C)C)NC(=O)[C@H](CC(C)C)NC(=O)[C@H](CCCCN)NC(=O)[C@H](CCCNC(=N)N)NC(=O)[C@H](C)NC(=O)[C@H](CO)NC(=O)[C@H](CC(C)C)NC(=O)[C@H](CCC(N)=O)NC(=O)[C@H](CC)NC(=O)[C@H](CC(C)C)NC(=O)[C@@H](NC(=O)[C@H](CCCCN)NC(=O)[C@H](CCCNC(=N)N)NC(=O)[C@H](Cc1ccc(OC)cc1)NC(=O)[C@H](CCCNC(=N)N)NC(=O)[C@H](CC(N)=O)NC(=O)[C@@H](NC(=O)[C@H](Cc1ccc(Cl)cc1)NC(=O)[C@@H](NC(=O)[C@H](C)NC(=O)[C@H](CC(=O)O)NC(=O)[C@@H](CCCNC(=N)N)NC(=O)[C@H](Cc1ccc(O)cc1)NC(=O)CCCCCCCCCCCNC(=O)Cc1ccccc1)[C@@H](C)CC)[C@@H](C)O)C(C)C)[C@@H](C)CC)C(=O)N[C@H](CCCNC(=N)N)C(=O)N[C@@H](CCCCNC(=N)N)C(=O)NC [AVR-234, PhAC-Ada-Tyr-DArg-Asp-Ala-Ile-Cpa-Thr-Asn-Arg-Tyr(Me)-Arg-Lys-Val-Leu-Abu-Gln-Leu-Ser-Ala-Arg-Lys-Leu-Leu-Gln-Asp-Ile-Nle-DArg-Har-NHCH3] ({PhAc-12Ado}-Y[dR]DAI[Phe(4-Cl)]TNRY(Me)RKVL[Abu]QLSARKLLQDI[Nle][dR][hArg]-NHMe) | 0.45 | 1.709 | 4.510 |  | 2.205 |
